Here are results for eight compounds from patent US4868186A, “Theophyllinemethyldithiolan and theophyllinemethyldithianyl derivatives having antibronchospastic antitussive and mucolytic activity” (Istituto Biologico Chemioterapico ABC S.p.A., priority 1986, dated 1989).

For data set [1], the system named is bronchospasm by acetylcholine chloride in guinea-pigs. The data set is described as follows: Bronchospasm by acetylcholine chloride (0.075 mg/kg i.v.) in guinea-pigs (Konzett and Roesler). The format is in vivo, guinea-pig. The settings on record: for ED50: Cavia porcellus, iv. The method, then:
Exp. Path. […] J. Pharmcol. 15, 290. Male guinea-pigs weighing 300-450 g were used under urethane anaesthesia (lg/kg i.p.). The animals were suitably prepared by insertion of a cannula in the jugular vein for intravenous administrations while the trachea was connected to an artificial respiration pump (Palmer) adapted for small animals, which was operated at a frequency of approximately 70 insufflations per minute. The pneumogram was recorded by means of a transducer on a polygraph (Battaglia-Rangoni).

A further data set concerns rabbits. The data set is described as follows: Mucolytic activity: mucoproduction in rabbits before and after oral treatment. The format is in vivo, rabbit. The settings on record: for Mucoproduction (mg/h) M ± SD 4-0 h (before the treatment): baseline before treatment; for mucolytic activity (in words): rabbits, oral. Here is the method:
(b) Mucolytic activity of compound 1, doxophylline and bromohexyne hydrochloride For these tests the method described by Perry, W. F., Boyd, E. M., J. Pharmacol., 1941, 73, 65 and suitably modified by us was used. New Zealand-type, male, white rabbits weighing 2.8-3.5 kg. were used. Pre-operative preparation consisted of treatment with 9 mg/kg i.m. of a non-stupefying central analgesic ([…] local anaesthesia in the tracheal region with xylocaine (0.9 mg/kg - 1% solution). The surgical operation commenced 15-20 minutes after the pharmacological pre-treatment. The trachea was exposed and a hole approximately 5-6 mm in diameter was made in its ventral side. The trachea was then introduced into the lower arm of a three-way polypropylene cannula, which had been cut suitably, longitudinally so as to connect the hole made in the trachea with the aperture of the third arm (vertical) of the cannula, and thus put it into communication with the outside. Thus, the cannula surrounded the outside of the trachea and was fixed "in loco" with sterile surgical silk thread. A polypropylene container was attached to the vertical arm of the cannula for collecting the mucous (capacity approximately 2 ml), and the wound was then sutured. The tracheal mucous was collected for four hours before the oral administration of the substance under test and for four hours after the treatment.

Data set [2] has as its system completely removed guinea-pig tracheas. The data set is described as follows: Constrictive action of histamine di-hydrochloride on completely removed guinea-pig tracheas (in vitro). The format is cell-based. The settings on record: for IC50: Cavia porcellus, read-out: ED50 (the source's name); for IC50 / ED50: Table I; for IC50 / % inhibition / ED50: histamine di-hydrochloride 5.10^-6 g/ml. The method, then: Thirty white guinea-pigs were used, from which the tracheas were removed, after they had been killed by ethereal anaesthesia. The tracheas were placed in a 50 ml bath of Krebs solution, suitably oxygenated and thermoregulated at a temperature of 37° C. The lower end of the trachea was closed while the upper end was connected to a polythene tube connected to a transducer for measuring volume differences connected to a polygraph, according to D. Jamieson's method 1962, Brit. J. Pharmacol. and Chemiotherapy, 19, 286, partially modified. Both the trachea and the polythene tube were filled with Krebs solution. The responses of the tracheas thus prepared to acetylcholine and histamine were investigated before and after the addition of the product to the bath.

Another data set is described as follows: in vivo. The settings on record: po. The method, then: The products were administered in a 0.5% aqueous suspension of carboxymethylcellulose at a concentration of 1 ml/100 g of body weight.
The nature of data set [3]: General statements on side effects, habituation, toxicity and therapeutic index. As to conditions: among compounds (1)-(4).
[4] abbreviates: legend of FIG. 2, unit inferred, read-out: ED 50.

One may read the % inhibition as the drop in the measured response relative to a control, in per cent. By LD50 is commonly meant the dose at which mortality reaches 50%. Higher therefore signals a less toxic substance.

In brackets after ≈: the same amount, converted by molar mass. Counter-ions that a name gives are not always drawn. Like-named read-outs stand apart in the source and are kept apart here.

For the compound `Cn1c(=O)c2c(ncn2CC2SCCS2)n(C)c1=O` [COMPOUND 1, 7-[2'-(1',3'-dithiolanyl)-methyl]-theophylline], the ED50 is 0.99 mg/kg in data set [1] (Table II, i.v., read-out: ED50 mg/kg i.v.) and 0.996 mg/kg in data set [1] (setting [4]). Besides, the “% Variation in endobronchial pressure after administration of acetylcholine chloride (0,075 mg/kg i.v.) M ± SE” value (from here on “% Variation … (0,075 mg/kg i.v.) M ± SE”) in data set [1] (dose 0.1 mg/kg i.v.) was 166.0 ± 22.4%; in data set [1] (dose 0.5 mg/kg i.v.), 145.1 ± 18.7%; in data set [1] (dose 1 mg/kg i.v.), 87.1 ± 15.2%; in data set [1] (dose 2 mg/kg i.v.) it was 51.7 ± 6.5%. The “% inhibition vs. controls” value in data set [1] (dose 0.1 mg/kg i.v.) is on record as -8.5%; in data set [1] (dose 0.5 mg/kg i.v.), -20.0%; in data set [1] (dose 1 mg/kg i.v.), -52.0%; in data set [1] (dose 2 mg/kg i.v.) it was -71.5%. Besides, the “antibronchospastic effect relative to aminophylline” value in data set [1] (from Table II) is recorded as “approximately five times that of aminophylline”. Further, in data set [1] (from Table II), the “antibronchospastic effect relative to doxophylline” value is “approximately twice that of doxophylline”. The “Mucoproduction (mg/h) M ± SD 4-0 h (before the treatment)” value (from here on “Mucoproduction (mg/h) M ± SD 4-0 h”) was determined as 30.6 ± 9.43 mg/h in the data set on rabbits (group dosed 10 mg/kg os), 27.2 ± 5.22 mg/h in the data set with rabbits (group dosed 30 mg/kg os) and 29.7 ± 4.95 mg/h with rabbits (group dosed 100 mg/kg os). Besides, the “mucolytic activity compared with bromohexyne hydrochloride” value in the data set with rabbits (compound at 100 mg/kg vs bromohexyne hydrochloride at 400 mg/kg) was “more active than bromohexyne hydrochloride at a dose of 400 mg/kg”. Besides, the “% Variation with respect to its own base” value in the data set with rabbits (dose 10 mg/kg os) is reported as “+13.95%”; in the data set with rabbits (dose 30 mg/kg os), “+26.95%”; in the data set on rabbits (dose 100 mg/kg os) it was “+57.27%”. Besides, the “Mucoproduction (mg/h) M ± SD 0-4 h (after the treatment)” value (“Mucoproduction (mg/h) M ± SD 0-4 h” for short) with rabbits (dose 10 mg/kg os) is 34.87 ± 10.25 mg/h; in the data set on rabbits (dose 30 mg/kg os) it was 34.53 ± 4.16 mg/h; in the data set with rabbits (dose 100 mg/kg os), 46.71 ± 8.82 mg/h. Also, the “mucolytic activity (in words)” value with rabbits was “dose-related mucolytic activity”. The IC50 in data set [2] stood at 126 µg/mL (≈ 423 µM). In addition, the “% inhibition” value is recorded as -17.2% in data set [2] (concentration 50 x 10^-6 g/ml), -32.5% in data set [2] (concentration 100 x 10^-6 g/ml), -62.5% in data set [2] (concentration 200 x 10^-6 g/ml) and -95.0% in data set [2] (concentration 300 x 10^-6 g/ml). In addition, in data set [2] (on the basis of the results obtained in vitro), the “activity in vitro, ranking among the compounds” value is reported as “the most active”. Also, the LD50 at 480 h in the data set “in vivo” (mouse) is 1510 mg/kg; in “in vivo” (rat), 1840 mg/kg. Besides, the “therapeutic index (in words)” value in data set [3] is “most favourable therapeutic index”.

For `CC(=O)N[C@@H](CS)C(=O)O` [N--acetylcysteine, reference compound], the “Mucoproduction (mg/h) M ± SD 4-0 h” value with rabbits (group dosed 400 mg/kg os) turned out to be 27.7 ± 5.50 mg/h. Also, in the data set on rabbits (dose 400 mg/kg os), the “% Variation with respect to its own base” value is reported as “+16.21%” and the “Mucoproduction (mg/h) M ± SD 0-4 h” value worked out at 32.19 ± 3.89 mg/h.

Consider `Cn1c(=O)c2c(ncn2CC2OCCO2)n(C)c1=O` [DOXOPHYLLINE, 7-[2'-(1',3'-dioxolanyl)-methyl]-theophylline, reference compound], for which the ED50 in data set [1] (setting [4]) is 2.02 mg/kg. Besides, the “% Variation … (0,075 mg/kg i.v.) M ± SE” value in data set [1] (dose 0.5 mg/kg i.v.) is 153.8 ± 18.4%; in data set [1] (dose 1 mg/kg i.v.) it was 133.3 ± 14.8%; in data set [1] (dose 2 mg/kg i.v.), 88.5 ± 11.3%; in data set [1] (dose 4 mg/kg i.v.) it was 56.4 ± 8.8%. Moreover, the “% inhibition vs. controls” value is recorded as -15.2% in data set [1] (dose 0.5 mg/kg i.v.), -26.5% in data set [1] (dose 1 mg/kg i.v.), -51.2% in data set [1] (dose 2 mg/kg i.v.) and -68.9% in data set [1] (dose 4 mg/kg i.v.). Besides, the “Mucoproduction (mg/h) M ± SD 4-0 h” value in the data set with rabbits (group dosed 100 mg/kg os) came out at 29.8 ± 5.80 mg/h. Moreover, the “% Variation with respect to its own base” value in the data set with rabbits (dose 100 mg/kg os) was “+7.71%”. The “Mucoproduction (mg/h) M ± SD 0-4 h” value in the data set on rabbits (dose 100 mg/kg os) is recorded as 32.10 ± 8.26 mg/h. Moreover, the “mucolytic activity (in words)” value in the data set on rabbits is listed as “no mucolytic activity”. Further, the IC50 in data set [2] stood at 175 µg/mL (≈ 657 µM). The “% inhibition” value is 0% in data set [2] (concentration 40 x 10^-6 g/ml), -54% in data set [2] (concentration 200 x 10^-6 g/ml), -78% in data set [2] (concentration 400 x 10^-6 g/ml) and -100% in data set [2] (concentration 800 x 10^-6 g/ml).

As to `Cn1c(=O)c2c(ncn2CC2SCC[S+]2[O-])n(C)c1=O` (centres unmarked) [COMPOUND 4, 7-[2'-(1',3'-dithiolanyl)-methyl]-theophylline sulphoxide], the ED50 in data set [2] is reported as 2241.8 10^-6 g/ml. The “% inhibition” value is recorded as -7.5% in data set [2] (concentration 100 x 10^-6 g/ml), -12.5% in data set [2] (concentration 200 x 10^-6 g/ml), -20.4% in data set [2] (concentration 300 x 10^-6 g/ml) and -27.8% in data set [2] (concentration 400 x 10^-6 g/ml).

For the compound `CN(Cc1cc(Br)cc(Br)c1N)C1CCCCC1` [BROMOHEXYNE, bromohexyne hydrochloride, reference compound], the “Mucoproduction (mg/h) M ± SD 4-0 h” value in the data set on rabbits (group dosed 400 mg/kg os) came out at 28.9 ± 7.82 mg/h. Moreover, in the data set on rabbits (dose 400 mg/kg os), the “% Variation with respect to its own base” value is listed as “+34.98%” and the “Mucoproduction (mg/h) M ± SD 0-4 h” value is on record as 39.01 ± 4.34 mg/h.

On to `Cn1c(=O)c2c(ncn2CC2SCCCS2)n(C)c1=O` [COMPOUND 2, 7-[2'-(1',3'-dithianyl)-methyl]-theophylline], for which, in data set [2], the IC50 came out at 837 µg/mL (≈ 2680 µM). For the same compound, the “% inhibition” value is -12.0% in data set [2] (concentration 100 x 10^-6 g/ml), -18.5% in data set [2] (concentration 200 x 10^-6 g/ml), -26.5% in data set [2] (concentration 250 x 10^-6 g/ml) and -38.5% in data set [2] (concentration 400 x 10^-6 g/ml).

Take `Cn1c(=O)c2c(ncn2CC2SCC[S+]2[O-])n(C)c1=O` (centres unmarked) [COMPOUND 3, 7-[2'-(1',3'-dithiolanyl)-methyl]-theophylline sulphoxide]: the ED50 in data set [2] is listed as 530.0 10^-6 g/ml. The “% inhibition” value in data set [2] (concentration 100 x 10^-6 g/ml) is -14.5%; in data set [2] (concentration 200 x 10^-6 g/ml), -21.5%; in data set [2] (concentration 300 x 10^-6 g/ml), -35.4%; in data set [2] (concentration 400 x 10^-6 g/ml), -47.5%.

In the case of `Cn1c(=O)c2[nH]cnc2n(C)c1=O` [AMINOPHYLLINE, aminophylline], the ED50 in data set [1] and in data set [1] (read-out: ED50 mg/kg i.v.) was 4.97 mg/kg throughout. Also, the “% Variation … (0,075 mg/kg i.v.) M ± SE” value in data set [1] (dose 0.5 mg/kg i.v.) is 158.7 ± 24.6%; in data set [1] (dose 1 mg/kg i.v.) it was 135.7 ± 21.2%; in data set [1] (dose 5 mg/kg i.v.) it was 117.0 ± 17.4%; in data set [1] (dose 10 mg/kg i.v.), 49.9 ± 10.2%. Also, the “% inhibition vs. controls” value in data set [1] (dose 0.5 mg/kg i.v.) is on record as -12.5%; in data set [1] (dose 1 mg/kg i.v.), -25.2%; in data set [1] (dose 5 mg/kg i.v.), -35.5%; in data set [1] (dose 10 mg/kg i.v.), -72.5%. Further, in data set [2], the IC50 was determined as 206 µg/mL (≈ 1140 µM). Further, the “% inhibition” value in data set [2] (concentration 100 x 10^-6 g/ml) was -10.9%; in data set [2] (concentration 150 x 10^-6 g/ml), -18.7%; in data set [2] (concentration 200 x 10^-6 g/ml), -46.15%; in data set [2] (concentration 300 x 10^-6 g/ml), -79.4%.
